According to PubChem BioAssay (NCI):
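Following 48 hours of exposure in 96-well plates, responses at five concentrations were used to interpolate endpoints linearly. At the TGI there is no net growth.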

Tests used:
Experiment in all cases: growth of human tumour cells (NCI), 48 h
786-0 renal = tested on: 786-0 renal
A498 renal = tested on: A498 renal
A549 NSCLC = tested on: A549 NSCLC
ACHN renal = tested on: ACHN renal
CAKI-1 renal = tested on: CAKI-1 renal
CCRF-CEM leukemia = tested on: CCRF-CEM leukemia
DLD-1 colon = tested on: DLD-1 colon
DMS 114 small cell lung = tested on: DMS 114 small cell lung
DMS 273 small cell lung = tested on: DMS 273 small cell lung
EKVX NSCLC = tested on: EKVX NSCLC
HCC-2998 colon = tested on: HCC-2998 colon
HCT-116 colon = tested on: HCT-116 colon
HCT-15 colon = tested on: HCT-15 colon
HL-60(TB) leukemia = tested on: HL-60(TB) leukemia
HOP-18 NSCLC = tested on: HOP-18 NSCLC
HOP-62 NSCLC = tested on: HOP-62 NSCLC
HOP-92 NSCLC = tested on: HOP-92 NSCLC
HT29 colon = tested on: HT29 colon
IGROV1 ovarian = tested on: IGROV1 ovarian
K-562 leukemia = tested on: K-562 leukemia
KM12 colon = tested on: KM12 colon
KM20L2 colon = tested on: KM20L2 colon
LOX IMVI melanoma = tested on: LOX IMVI melanoma
LXFL 529 NSCLC = tested on: LXFL 529 NSCLC
M14 melanoma = tested on: M14 melanoma
M19-MEL melanoma = tested on: M19-MEL melanoma
MALME-3M melanoma = tested on: MALME-3M melanoma
MOLT-4 leukemia = tested on: MOLT-4 leukemia
NCI-H226 lung = tested on: NCI-H226 lung
NCI-H23 lung = tested on: NCI-H23 lung
NCI-H460 lung = tested on: NCI-H460 lung
OVCAR-4 ovarian = tested on: OVCAR-4 ovarian
OVCAR-5 ovarian = tested on: OVCAR-5 ovarian
OVCAR-8 ovarian = tested on: OVCAR-8 ovarian
RPMI-8226 leukemia = tested on: RPMI-8226 leukemia
RXF 393 renal = tested on: RXF 393 renal
RXF-631 renal = tested on: RXF-631 renal
SF-268 CNS = tested on: SF-268 CNS
SF-295 CNS = tested on: SF-295 CNS
SF-539 CNS = tested on: SF-539 CNS
SK-MEL-2 melanoma = tested on: SK-MEL-2 melanoma
SK-MEL-28 melanoma = tested on: SK-MEL-28 melanoma
SK-OV-3 ovarian = tested on: SK-OV-3 ovarian
SN12C renal = tested on: SN12C renal
SNB-19 CNS = tested on: SNB-19 CNS
SNB-75 CNS = tested on: SNB-75 CNS
SNB-78 CNS = tested on: SNB-78 CNS
SR leukemia = tested on: SR leukemia
SW-620 colon = tested on: SW-620 colon
TK-10 renal = tested on: TK-10 renal
U251 CNS = tested on: U251 CNS
UACC-257 melanoma = tested on: UACC-257 melanoma
UACC-62 melanoma = tested on: UACC-62 melanoma
UO-31 renal = tested on: UO-31 renal
BT-549 breast = tested on: BT-549 breast
COLO 205 colon = tested on: COLO 205 colon
DU-145 prostate = tested on: DU-145 prostate
HS 578T breast = tested on: HS 578T breast
MCF7 breast = tested on: MCF7 breast
MDA-MB-231 breast = tested on: MDA-MB-231 breast
MDA-MB-435 = tested on: MDA-MB-435
MDA-N = tested on: MDA-N
NCI-H522 lung = tested on: NCI-H522 lung
NCI/ADR-RES ovarian = tested on: NCI/ADR-RES ovarian
OVCAR-3 ovarian = tested on: OVCAR-3 ovarian
PC-3 prostate = tested on: PC-3 prostate
SK-MEL-5 melanoma = tested on: SK-MEL-5 melanoma
T-47D breast = tested on: T-47D breast

## CN(C)C(=S)/N=c1\ssc(=Nc2ccccc2)n1C
786-0 renal
  TGI: > 100 µM
A498 renal
  TGI: > 100 µM
A549 NSCLC
  TGI: > 100 µM
ACHN renal
  TGI: > 100 µM
CAKI-1 renal
  TGI: > 100 µM
CCRF-CEM leukemia
  TGI: > 100 µM
DLD-1 colon
  TGI: > 100 µM
DMS 114 small cell lung
  TGI: > 100 µM
DMS 273 small cell lung
  TGI: > 100 µM
EKVX NSCLC
  TGI: > 100 µM
HCC-2998 colon
  TGI: > 100 µM
HCT-116 colon
  TGI: > 100 µM
HCT-15 colon
  TGI: > 100 µM
HL-60(TB) leukemia
  TGI: > 100 µM
HOP-18 NSCLC
  TGI: > 100 µM
HOP-62 NSCLC
  TGI: > 100 µM
HOP-92 NSCLC
  TGI: > 100 µM
HT29 colon
  TGI: > 100 µM
IGROV1 ovarian
  TGI: > 100 µM
K-562 leukemia
  TGI: > 100 µM
KM12 colon
  TGI: > 100 µM
KM20L2 colon
  TGI: > 100 µM
LOX IMVI melanoma
  TGI: > 100 µM
LXFL 529 NSCLC
  TGI: > 100 µM
M14 melanoma
  TGI: > 100 µM
M19-MEL melanoma
  TGI: > 100 µM
MALME-3M melanoma
  TGI: > 100 µM
MOLT-4 leukemia
  TGI: > 100 µM
NCI-H226 lung
  TGI: > 100 µM
NCI-H23 lung
  TGI: > 100 µM
NCI-H460 lung
  TGI: > 100 µM
OVCAR-4 ovarian
  TGI: > 100 µM
OVCAR-5 ovarian
  TGI: > 100 µM
OVCAR-8 ovarian
  TGI: > 100 µM
RPMI-8226 leukemia
  TGI: > 100 µM
RXF 393 renal
  TGI: > 100 µM
RXF-631 renal
  TGI: > 100 µM
SF-268 CNS
  TGI: > 100 µM
SF-295 CNS
  TGI: > 100 µM
SF-539 CNS
  TGI: > 100 µM
SK-MEL-2 melanoma
  TGI: > 100 µM
SK-MEL-28 melanoma
  TGI: > 100 µM
SK-OV-3 ovarian
  TGI: > 100 µM
SN12C renal
  TGI: > 100 µM
SNB-19 CNS
  TGI: > 100 µM
SNB-75 CNS
  TGI: 44.7 µM
SNB-78 CNS
  TGI: > 100 µM
SR leukemia
  TGI: > 100 µM
SW-620 colon
  TGI: > 100 µM
TK-10 renal
  TGI: > 100 µM
U251 CNS
  TGI: > 100 µM
UACC-257 melanoma
  TGI: > 100 µM
UACC-62 melanoma
  TGI: > 100 µM
UO-31 renal
  TGI: > 100 µM

## CN1CCN(Cc2nc3cccc4c3c([n+]2[O-])-c2ccccc2-4)CC1
786-0 renal
  TGI: > 100 µM
A498 renal
  TGI: > 53.1 µM
A549 NSCLC
  TGI: > 51.3 µM
ACHN renal
  TGI: > 68.7 µM
BT-549 breast
  TGI: > 100 µM
CAKI-1 renal
  TGI: 96.9 µM
CCRF-CEM leukemia
  TGI: > 82.8 µM
COLO 205 colon
  TGI: > 59.7 µM
DLD-1 colon
  TGI: > 100 µM
DMS 114 small cell lung
  TGI: > 100 µM
DMS 273 small cell lung
  TGI: > 100 µM
DU-145 prostate
  TGI: 32.1 µM
EKVX NSCLC
  TGI: > 100 µM
HCC-2998 colon
  TGI: > 100 µM
HCT-116 colon
  TGI: > 100 µM
HCT-15 colon
  TGI: > 100 µM
HL-60(TB) leukemia
  TGI: > 100 µM
HOP-18 NSCLC
  TGI: > 100 µM
HOP-62 NSCLC
  TGI: > 100 µM
HOP-92 NSCLC
  TGI: > 73.7 µM
HS 578T breast
  TGI: 97.1 µM
HT29 colon
  TGI: > 61.1 µM
IGROV1 ovarian
  TGI: > 84.2 µM
K-562 leukemia
  TGI: > 100 µM
KM12 colon
  TGI: > 66 µM
KM20L2 colon
  TGI: > 100 µM
LOX IMVI melanoma
  TGI: > 51.5 µM
LXFL 529 NSCLC
  TGI: > 100 µM
M14 melanoma
  TGI: > 61.1 µM
M19-MEL melanoma
  TGI: > 100 µM
MALME-3M melanoma
  TGI: > 50.2 µM
MCF7 breast
  TGI: 84.9 µM
MDA-MB-231 breast
  TGI: 44.3 µM
MDA-MB-435
  TGI: 34 µM
MDA-N
  TGI: > 100 µM
MOLT-4 leukemia
  TGI: > 69.4 µM
NCI-H226 lung
  TGI: > 68.1 µM
NCI-H23 lung
  TGI: > 61.7 µM
NCI-H460 lung
  TGI: > 100 µM
NCI-H522 lung
  TGI: > 48.5 µM
NCI/ADR-RES ovarian
  TGI: 48.3 µM
OVCAR-3 ovarian
  TGI: > 100 µM
OVCAR-4 ovarian
  TGI: > 84.4 µM
OVCAR-5 ovarian
  TGI: > 100 µM
OVCAR-8 ovarian
  TGI: 37.3 µM
PC-3 prostate
  TGI: 48.6 µM
RPMI-8226 leukemia
  TGI: > 74.4 µM
RXF 393 renal
  TGI: 25.9 µM
RXF-631 renal
  TGI: > 100 µM
SF-268 CNS
  TGI: > 66.5 µM
SF-295 CNS
  TGI: > 100 µM
SF-539 CNS
  TGI: > 88 µM
SK-MEL-2 melanoma
  TGI: > 54.3 µM
SK-MEL-28 melanoma
  TGI: > 62.6 µM
SK-MEL-5 melanoma
  TGI: 49.9 µM
SK-OV-3 ovarian
  TGI: > 100 µM
SN12C renal
  TGI: > 100 µM
SNB-19 CNS
  TGI: > 100 µM
SNB-75 CNS
  TGI: 66.6 µM
SNB-78 CNS
  TGI: > 100 µM
SR leukemia
  TGI: 31.8 µM
SW-620 colon
  TGI: > 100 µM
T-47D breast
  TGI: 76.9 µM
TK-10 renal
  TGI: > 100 µM
U251 CNS
  TGI: > 64 µM
UACC-257 melanoma
  TGI: > 64.1 µM
UACC-62 melanoma
  TGI: > 56.4 µM
UO-31 renal
  TGI: 66.4 µM

## O=C1C2=C(C(c3ccccc3)=C1c1ccccc1)c1ccccc1C1(c3ccccc3)C2=C(O)C(c2ccccc2)=C1c1ccccc1 (configuration not stated)
786-0 renal
  TGI: > 100 µM
A498 renal
  TGI: > 100 µM
A549 NSCLC
  TGI: > 100 µM
ACHN renal
  TGI: > 100 µM
CAKI-1 renal
  TGI: > 100 µM
COLO 205 colon
  TGI: > 100 µM
DLD-1 colon
  TGI: > 100 µM
DMS 114 small cell lung
  TGI: > 100 µM
DMS 273 small cell lung
  TGI: > 100 µM
EKVX NSCLC
  TGI: > 100 µM
HCC-2998 colon
  TGI: > 100 µM
HCT-116 colon
  TGI: > 100 µM
HCT-15 colon
  TGI: > 100 µM
HL-60(TB) leukemia
  TGI: > 100 µM
HOP-18 NSCLC
  TGI: > 100 µM
HOP-62 NSCLC
  TGI: > 100 µM
HOP-92 NSCLC
  TGI: > 100 µM
HT29 colon
  TGI: > 100 µM
IGROV1 ovarian
  TGI: > 100 µM
KM12 colon
  TGI: > 100 µM
KM20L2 colon
  TGI: > 100 µM
LOX IMVI melanoma
  TGI: > 100 µM
LXFL 529 NSCLC
  TGI: > 100 µM
M14 melanoma
  TGI: > 100 µM
M19-MEL melanoma
  TGI: > 100 µM
MALME-3M melanoma
  TGI: > 100 µM
MOLT-4 leukemia
  TGI: > 100 µM
NCI-H226 lung
  TGI: > 100 µM
NCI-H23 lung
  TGI: > 100 µM
NCI-H460 lung
  TGI: > 100 µM
NCI-H522 lung
  TGI: > 100 µM
OVCAR-3 ovarian
  TGI: > 100 µM
OVCAR-4 ovarian
  TGI: > 100 µM
OVCAR-5 ovarian
  TGI: > 100 µM
OVCAR-8 ovarian
  TGI: > 100 µM
RPMI-8226 leukemia
  TGI: > 100 µM
RXF 393 renal
  TGI: > 100 µM
RXF-631 renal
  TGI: > 100 µM
SF-268 CNS
  TGI: > 100 µM
SF-295 CNS
  TGI: > 100 µM
SF-539 CNS
  TGI: > 100 µM
SK-MEL-2 melanoma
  TGI: > 100 µM
SK-MEL-28 melanoma
  TGI: > 100 µM
SK-MEL-5 melanoma
  TGI: > 100 µM
SK-OV-3 ovarian
  TGI: > 100 µM
SN12C renal
  TGI: > 100 µM
SNB-75 CNS
  TGI: > 100 µM
SNB-78 CNS
  TGI: > 100 µM
SR leukemia
  TGI: > 100 µM
SW-620 colon
  TGI: > 100 µM
TK-10 renal
  TGI: > 100 µM
U251 CNS
  TGI: > 100 µM
UACC-257 melanoma
  TGI: > 100 µM
UACC-62 melanoma
  TGI: > 100 µM
UO-31 renal
  TGI: > 100 µM
